Source: patent US6875886B2, “Modified PSMA ligands and uses related thereto” (Beth Israel Deaconess Medical Center, Inc., priority 2001, dated 2005)
Where a SMILES comes first, the peptide text is derived from it.

Experiments:
[1] = molecular target: PSMA (Homo sapiens, UniProt Q04609); assay: 3H-NAAG assay of PSMA enzymatic activity; assay type: biochemical
Source text: To determine the effects of several PSMA ligands and modified PSMA ligands (β-AG/78) on PSMA activity, ^3H-NAAG assay (Slusher et al., J. Biol. Chem., 1990, 265: 21297-301) was used to measure the activity of PSMA at the presence or absence of several PSMA ligands.
β-AG/78 (FIG. 5, bottom panel) is a conjugate of β-AG and the near-infrared fluorophore IRDye78. The conjugate can be synthesized using a similar scheme as shown in Example 1, and the product can be purified using either TLC (not shown) or HPLC, as shown in FIG. 6. As a control, IRDye78 was also tested. The results were shown as percentage of remaining PSMA activity as compared to PSMA activity without any additives, over a range of inhibitor concentrations.

[2] = system: NAALADase; details: NAALADase with NAAG as substrate; cited from earlier work

Sequence of PSMA (Q04609 whole entry): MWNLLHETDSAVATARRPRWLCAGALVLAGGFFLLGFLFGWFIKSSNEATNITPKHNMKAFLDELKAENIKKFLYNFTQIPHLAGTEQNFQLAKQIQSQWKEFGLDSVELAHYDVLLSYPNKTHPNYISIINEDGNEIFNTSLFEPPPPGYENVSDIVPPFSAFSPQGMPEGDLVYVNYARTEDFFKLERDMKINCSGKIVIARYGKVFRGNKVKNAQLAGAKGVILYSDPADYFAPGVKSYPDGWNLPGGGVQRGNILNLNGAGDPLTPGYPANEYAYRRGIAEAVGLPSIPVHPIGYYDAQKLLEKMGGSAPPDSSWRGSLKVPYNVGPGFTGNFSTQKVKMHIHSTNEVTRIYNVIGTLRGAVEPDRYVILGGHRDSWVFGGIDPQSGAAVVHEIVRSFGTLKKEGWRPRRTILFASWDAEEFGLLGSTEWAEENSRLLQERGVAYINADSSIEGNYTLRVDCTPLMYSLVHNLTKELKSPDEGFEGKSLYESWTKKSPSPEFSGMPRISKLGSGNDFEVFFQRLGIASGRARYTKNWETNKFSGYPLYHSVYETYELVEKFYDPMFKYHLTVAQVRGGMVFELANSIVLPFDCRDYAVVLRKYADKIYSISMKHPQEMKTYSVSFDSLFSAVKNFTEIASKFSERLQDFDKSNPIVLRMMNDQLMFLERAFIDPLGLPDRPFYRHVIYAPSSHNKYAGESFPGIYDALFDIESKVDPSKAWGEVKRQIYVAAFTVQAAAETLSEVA

SMILES	inhibitory potency relative to comparator ([1]; comparison of inhibition curves)	inhibition of PSMA enzymatic activity ([1]; percentage of remaining PSMA activity over a range of inhibitor concentrations)	Km [2]
N[C@@H](CC(=O)N[C@@H](CCC(=O)O)C(=O)O)C(=O)O [β-AG, β-Asp-Glu]	slightly less potent than that of beta-N-acetyl-AG (β-NAAG)	is indeed an inhibitor of PSMA enzymatic activity	–
CC(=O)N[C@@H](CC(=O)O)C(=O)N[C@@H](CCC(=O)O)C(=O)O [NAAG, N-acetyl-aspartyl-glutamate] (Ac-Asp-Glu-OH)	–	–	0.54 µM
